Experimental findings from patent publication US20260258473A1, “FLUORESCENT PROBE FOR DETECTION OF ENPP ACTIVITY” (THE UNIVERSITY OF TOKYO, priority 2019, published 2026) are described below.

For this assay, the target named is ENPP2 (Homo sapiens, UniProt Q13822). The assay can be described thus: Measurement of plasma sample using a plate reader (ENPP probe fluorescence with and without serum). The assay is classed as biochemical. The note with it: compound at 10 μmol/L, ENPP2 at 25 μg/mL, human serum diluted by 10 times vs no serum, multi-well plate, Tris-HCl pH 8.3. On the procedure: First, compounds (4) was diluted to 10 μmol/L with an assay buffer. The assay buffer has the composition of Tris-HCl buffer solution (pH 8.3), magnesium chloride at 1.0 mmol/L and 0.5% CHAPS. Subsequently, ENPP2 at 25 μg/mL and human serum diluted by 10 times were added, and the mixture was dispensed into a multi-well plate. Subsequently, the fluorescence intensity was measured with a plate reader. […] On the other hand, as described above, the measurement method using a microdevice enabled the activity of ENPP to be adequately measured even in the presence of serum.

`COc1cc(OC)c(S(=O)(=O)O)cc1-c1c2ccc(=O)cc-2oc2cc(OCOP(=O)(O)OCC3OC(n4cc(C)c(=O)[nH]c4=O)CC3O)ccc12` (stereo not shown) [Compound (4)]: the “measured intensity of the activity of ENPP (fluorescence intensity)” value was “lower when serum was present than when serum was not present”.
